# In article PMC11116414, “Impact of secretin receptor homo-dimerization on natural ligand binding” (Nature Communications, 2024):
# No end group written: not given here.
# System: cysteine-containing SecR(G264A,I268A) constructs
# Assay: Cysteine trapping with SecR(G264A,I268A) cysteine constructs, intact COS-1 cells
# Assay type: binding, human
# Conditions: for Intraloop labeling / Overall labeling: mean ± S.E.M.
# Description: In short, 15 µg of each peptide were incubated with 1 mCi of Na^125I for 15 s in borate buffer (pH 9.0) using solid-state N-chlorobenzene sulfonamide (iodination beads), and radioactive peptide products were separated and purified using reversed-phase HPLC, to yield a mono-iodinated peak with a specific radioactivity of 2000 Ci/mmol.
# Modified secretin receptor constructs were prepared by mutagenesis of human SecR(G264A,I268A) by introducing cysteine residues to replace each natural residue in the N-terminal stalk region, (extracellular loop 1) ECL1, ECL2, and ECL3 regions of the receptor[21]. Mutagenesis was performed using the QuikChange site-directed mutagenesis kit from Stratagene (La Jolla, CA), with the products verified by direct DNA sequencing.
# Cysteine trapping is a technique in which cysteine residues incorporated into distinct positions within a peptide ligand and within its receptor are allowed to form disulfide bonds when two free cysteines are in proximity to each other with necessary distance and geometry. As noted above, this was performed with secretin peptides incorporating cysteines in positions 2, 5, 6 and 7[20],[21], and with a series of SecR mutants incorporating cysteines in all extracellular domains (75 distinct constructs in a TM4 mutant non-dimerizing SecR background). COS-1 cells were grown to approximate 85% confluence in 24-well tissue culture plates, and transfected with cysteine mutant receptor constructs using the PEI method. Assays were started by washing the cells with DMEM containing 5% Fetal Clone II before being incubated with 200 μl radiolabeled cysteine-containing probes (approximately 100,000 cpm per well) for 1.5 h at room temperature. The assays were terminated by washing the cells with ice-cold PBS, pH 7.4, and mixing with 60 µl SDS Laemmli sample buffer not containing dithiothreitol (DTT). Lysates were run on 10% SDS-polyacrylamide gels. Gels were then dried, and bands of interest were visualized by autoradiography, and specific bands were identified, and intensities quantified using ImageJ. Sites having labeling above background were determined using one-way ANOVA with Dunnett’s post-test, with P < 0.001 considered to be significant. The apparent molecular weights of the receptor bands were determined by interpolation with the mobility of the appropriate ProSieve protein markers.
# [1] = A292C, ECL2, n = 3-5, Cys5 significant (P < 0.0001)
# [2] = A365C, ECL3, n = 3-5, Cys5 significant (P < 0.0001)
# [3] = D364C, ECL3, n = 3-5, Cys5 significant (P < 0.0001)
# [4] = F279C, ECL2, % of highest labeling within loop, n = 4 (Cys2), 5 (Cys5, Cys6), 3 (Cys7)
# [5] = F279C, ECL2, % of highest-labeled residue across all constructs, n = 4 (Cys2), 5 (Cys5, Cys6), 3 (Cys7)
# [6] = I288C, ECL2, n = 3-5, Cys5 and Cys7 significant (P < 0.0001)
# [7] = L374C, ECL3, n = 3-5, Cys5, Cys6, Cys7 significant (P < 0.001)
# [8] = W295C, ECL2, n = 3-5, Cys2, Cys5, Cys7 significant (P < 0.0001)
# [9] = W296C, ECL2, n = 3-5, Cys6 significant (P = 0.0003)
substance,measurement,setting,value
"Cys^2-[Tyr^10]secretin(1-27) (HCDGTFTSEYSRLREGARLQRLLQGLV; not fully specified; ends and bridges not checked; also: radioiodinated; UniProt P09683 28-54, looked up, variant S2C L10Y) [Cys^2-Sec, cysteine-containing secretin agonist probe, radioiodinated for cysteine trapping]",Intraloop labeling,"A290C, ECL2, n = 3-5",< 1 percentage
same,Overall labeling,"A290C, ECL2, n = 3-5",< 1 percentage
same,Intraloop labeling,"A292C, ECL2, n = 3-5",< 1 percentage
same,Overall labeling,[1],< 1 percentage
same,Intraloop labeling,"A365C, ECL3, n = 3-5",22.5±19.5 percentage
same,Overall labeling,[2],21.7±19.6 percentage
same,Intraloop labeling,"D282C, ECL2, n = 3-5",< 1 percentage
same,Overall labeling,"D282C, ECL2, n = 3-5",< 1 percentage
same,Intraloop labeling,"D287C, ECL2, n = 3-5",< 1 percentage
same,Overall labeling,"D287C, ECL2, n = 3-5",< 1 percentage
same,Intraloop labeling,"D364C, ECL3, n = 3-5",22.1±19.0 percentage
same,Overall labeling,[3],21.3±19.1 percentage
same,Intraloop labeling,"E281C, ECL2, n = 3-5",< 1 percentage
same,Overall labeling,"E281C, ECL2, n = 3-5",< 1 percentage
same,Overall labeling,"E363C, ECL3, n = 3-5",< 1 percentage
same,Intraloop labeling,"E367C, ECL3, n = 3-5",< 1 percentage
same,Overall labeling,"E367C, ECL3, n = 3-5",< 1 percentage
same,Intraloop labeling,"E373C, ECL3, n = 3-5",37.0±22.4 percentage
same,Overall labeling,"E373C, ECL3, n = 3-5",27.2±18.7 percentage
same,Intraloop labeling,[4],< 1 percentage
same,Overall labeling,[5],< 1 percentage
same,Intraloop labeling,"F358C, ECL3, n = 3-5",36.3±17.6 percentage
same,Overall labeling,"F358C, ECL3, n = 3-5",29.0±11.6 percentage
same,Intraloop labeling,"F360C, ECL3, n = 3-5",22.9±8.3 percentage
same,Overall labeling,"F360C, ECL3, n = 3-5",19.4±6.5 percentage
same,Intraloop labeling,"F371C, ECL3, n = 3-5",14.7±12.5 percentage
same,Overall labeling,"F371C, ECL3, n = 3-5",14.5±12.5 percentage
same,Intraloop labeling,"F372C, ECL3, n = 3-5",33.7±20.5 percentage
same,Overall labeling,"F372C, ECL3, n = 3-5",23.5±15.3 percentage
same,Intraloop labeling,"G284C, ECL2, n = 3-5",< 1 percentage
same,Overall labeling,"G284C, ECL2, n = 3-5",< 1 percentage
same,Intraloop labeling,"I288C, ECL2, n = 3-5",< 1 percentage
same,Overall labeling,[6],< 1 percentage
same,Intraloop labeling,"I294C, ECL2, n = 3-5",< 1 percentage
same,Overall labeling,"I294C, ECL2, n = 3-5",< 1 percentage
same,Intraloop labeling,"I368C, ECL3, n = 3-5",< 1 percentage
same,Overall labeling,"I368C, ECL3, n = 3-5",< 1 percentage
same,Intraloop labeling,"L280C, ECL2, n = 3-5",< 1 percentage
same,Overall labeling,"L280C, ECL2, n = 3-5",< 1 percentage
same,Intraloop labeling,"L370C, ECL3, n = 3-5",16.6±15.3 percentage
same,Intraloop labeling,"L374C, ECL3, n = 3-5",40.3±24.4 percentage
same,Overall labeling,[7],29.1±19.6 percentage
same,Intraloop labeling,"N289C, ECL2, n = 3-5",< 1 percentage
same,Overall labeling,"N289C, ECL2, n = 3-5",< 1 percentage
same,Intraloop labeling,"N291C, ECL2, n = 3-5",< 1 percentage
same,Overall labeling,"N291C, ECL2, n = 3-5",< 1 percentage
same,Intraloop labeling,"Q369C, ECL3, n = 3-5",< 1 percentage
same,Overall labeling,"Q369C, ECL3, n = 3-5",< 1 percentage
same,Intraloop labeling,"S293C, ECL2, n = 3-5",< 1 percentage
same,Overall labeling,"S293C, ECL2, n = 3-5",< 1 percentage
same,Intraloop labeling,"S361C, ECL3, n = 3-5",< 1 percentage
same,Overall labeling,"S361C, ECL3, n = 3-5",< 1 percentage
same,Intraloop labeling,"V283C, ECL2, n = 3-5",< 1 percentage
same,Overall labeling,"V283C, ECL2, n = 3-5",< 1 percentage
same,Intraloop labeling,"W286C, ECL2, n = 3-5",< 1 percentage
same,Overall labeling,"W286C, ECL2, n = 3-5",< 1 percentage
same,Intraloop labeling,"W295C, ECL2, n = 3-5",100±0 percentage
same,Overall labeling,[8],93.0±7.0 percentage
same,Intraloop labeling,"W296C, ECL2, n = 3-5",< 1 percentage
same,Overall labeling,[9],< 1 percentage
"Cys^5-[Tyr^10]secretin(1-27) (HSDGCFTSEYSRLREGARLQRLLQGLV; not fully specified; ends and bridges not checked; also: radioiodinated; UniProt P09683 28-54, looked up, variant T5C L10Y) [Cys^5-Sec, cysteine-containing secretin agonist probe, radioiodinated for cysteine trapping]",Intraloop labeling,"A290C, ECL2, n = 3-5",20.3±19.9 percentage
same,Overall labeling,"A290C, ECL2, n = 3-5",15.5±15.2 percentage
same,Intraloop labeling,"A292C, ECL2, n = 3-5",93.4±2.8 percentage
same,Overall labeling,[1],88.5±4.0 percentage
same,Intraloop labeling,"A365C, ECL3, n = 3-5",90.4±5.8 percentage
same,Overall labeling,[2],82.4±7.9 percentage
same,Intraloop labeling,"D282C, ECL2, n = 3-5",< 1 percentage
same,Overall labeling,"D282C, ECL2, n = 3-5",< 1 percentage
same,Intraloop labeling,"D287C, ECL2, n = 3-5",< 1 percentage
same,Overall labeling,"D287C, ECL2, n = 3-5",< 1 percentage
same,Intraloop labeling,"D364C, ECL3, n = 3-5",62.2±12.3 percentage
same,Overall labeling,[3],54.2±7.8 percentage
same,Intraloop labeling,"E281C, ECL2, n = 3-5",< 1 percentage
same,Overall labeling,"E281C, ECL2, n = 3-5",< 1 percentage
same,Intraloop labeling,"E363C, ECL3, n = 3-5",< 1 percentage
same,Overall labeling,"E363C, ECL3, n = 3-5",< 1 percentage
same,Intraloop labeling,"E367C, ECL3, n = 3-5",< 1 percentage
same,Overall labeling,"E367C, ECL3, n = 3-5",< 1 percentage
same,Intraloop labeling,"E373C, ECL3, n = 3-5",< 1 percentage
same,Overall labeling,"E373C, ECL3, n = 3-5",< 1 percentage
same,Intraloop labeling,[4],< 1 percentage
same,Overall labeling,[5],< 1 percentage
same,Intraloop labeling,"F371C, ECL3, n = 3-5",< 1 percentage
same,Overall labeling,"F371C, ECL3, n = 3-5",< 1 percentage
same,Intraloop labeling,"F372C, ECL3, n = 3-5",< 1 percentage
same,Overall labeling,"F372C, ECL3, n = 3-5",< 1 percentage
same,Intraloop labeling,"G284C, ECL2, n = 3-5",< 1 percentage
same,Overall labeling,"G284C, ECL2, n = 3-5",< 1 percentage
same,Intraloop labeling,"I288C, ECL2, n = 3-5",71.1±10.8 percentage
same,Overall labeling,[6],69.2±12.2 percentage
same,Intraloop labeling,"I294C, ECL2, n = 3-5",< 1 percentage
same,Overall labeling,"I294C, ECL2, n = 3-5",< 1 percentage
same,Intraloop labeling,"I297C, ECL2, n = 3-5",< 1 percentage
same,Overall labeling,"I297C, ECL2, n = 3-5",< 1 percentage
same,Intraloop labeling,"I368C, ECL3, n = 3-5",< 1 percentage
same,Overall labeling,"I368C, ECL3, n = 3-5",< 1 percentage
same,Intraloop labeling,"L280C, ECL2, n = 3-5",< 1 percentage
same,Overall labeling,"L280C, ECL2, n = 3-5",< 1 percentage
same,Intraloop labeling,"L370C, ECL3, n = 3-5",< 1 percentage
same,Overall labeling,"L370C, ECL3, n = 3-5",< 1 percentage
same,Intraloop labeling,"L374C, ECL3, n = 3-5",77.3±7.7 percentage
same,Overall labeling,[7],69.8±7.5 percentage
same,Intraloop labeling,"M366C, ECL3, n = 3-5",59.9±11.0 percentage
same,Overall labeling,"M366C, ECL3, n = 3-5, Cys5 significant (P < 0.0001)",55.3±12.0 percentage
same,Intraloop labeling,"N289C, ECL2, n = 3-5",< 1 percentage
same,Overall labeling,"N289C, ECL2, n = 3-5",< 1 percentage
same,Intraloop labeling,"N291C, ECL2, n = 3-5",< 1 percentage
same,Overall labeling,"N291C, ECL2, n = 3-5",< 1 percentage
same,Intraloop labeling,"P362C, ECL3, n = 3-5",20.3±19.9 percentage
same,Overall labeling,"P362C, ECL3, n = 3-5",19.3±19.0 percentage
same,Intraloop labeling,"Q369C, ECL3, n = 3-5",21.6±13.4 percentage
same,Overall labeling,"Q369C, ECL3, n = 3-5",21.6±13.5 percentage
same,Intraloop labeling,"S293C, ECL2, n = 3-5",< 1 percentage
same,Overall labeling,"S293C, ECL2, n = 3-5",< 1 percentage
same,Intraloop labeling,"S361C, ECL3, n = 3-5",< 1 percentage
same,Overall labeling,"S361C, ECL3, n = 3-5",< 1 percentage
same,Intraloop labeling,"V283C, ECL2, n = 3-5",< 1 percentage
same,Overall labeling,"V283C, ECL2, n = 3-5",< 1 percentage
same,Intraloop labeling,"W286C, ECL2, n = 3-5",< 1 percentage
same,Overall labeling,"W286C, ECL2, n = 3-5",< 1 percentage
same,Intraloop labeling,"W295C, ECL2, n = 3-5",79.1±16.7 percentage
same,Overall labeling,[8],78.3±17.3 percentage
same,Intraloop labeling,"W296C, ECL2, n = 3-5",< 1 percentage
same,Overall labeling,[9],< 1 percentage
same,"cysteine trapping in ECL3, in words",WT (earlier work) and non-dimerizing SecR,labeled ECL3 residues
